# Source: patent US8106055B2, “Substituted amide compounds” (Gruenenthal GmbH, priority 2007, dated 2012)
# Molecular target: T1, bradykinin 1 receptor (B1R) of the rat (Rattus norvegicus, UniProt P97583)
# T1 construct: expressed in transfected cells; host or cells: CHO K1 cells
# T1 sequence (P97583 1-337): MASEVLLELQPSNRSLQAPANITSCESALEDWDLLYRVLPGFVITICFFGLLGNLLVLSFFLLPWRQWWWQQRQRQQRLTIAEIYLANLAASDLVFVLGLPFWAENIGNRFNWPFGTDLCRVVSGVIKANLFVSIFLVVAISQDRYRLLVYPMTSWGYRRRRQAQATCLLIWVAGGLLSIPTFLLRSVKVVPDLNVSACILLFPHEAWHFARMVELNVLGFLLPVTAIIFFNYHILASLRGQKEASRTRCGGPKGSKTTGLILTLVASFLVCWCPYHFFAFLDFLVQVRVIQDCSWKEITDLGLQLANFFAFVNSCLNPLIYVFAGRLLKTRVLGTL
# Assay: Functional investigation on the rat bradykinin 1 receptor (B1R), Ca2+ FLIPR assay in CHO K1 rB1R cells
# Type: cell-based
# Conditions: B1R antagonism rat; test substance 10 μM; Ca2+ FLIPR, CHO K1 rB1R cells
# Method in brief: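 Peak Ca2+-dependent fluorescence in B1R-transfected CHO K1 cells measures antagonism of an EC80 agonist challenge given 10-20 min after compound. Agonist is Lys-Des-Arg9-bradykinin for human, Des-Arg9-bradykinin for rat receptor.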
row,Structure (SMILES),B1R Ant. r [10 μM] % Inhibition [%]
1,CN(C)C(c1cccc(F)c1)C1CCC(CCNC(=O)COCC2CCCN2S(=O)(=O)c2ccc(Cl)c(Cl)c2)CC1 (stereo not drawn) [Example 202],−15
2,CN(C)C(c1cccc(F)c1)C1CCC(NC(=O)COCC2CCCN(S(=O)(=O)c3ccccc3)C2)CC1 (stereo not drawn) [Example 266],24
3,COc1ccc(S(=O)(=O)N(C)CCOCC(=O)NCC2CCC(C(c3ccccc3)N(C)C)CC2)cc1 (stereo not drawn) [Example 242],22
4,COc1ccc(S(=O)(=O)N2CCC(OCC(=O)NCC3CCC(C(c4ccc(Cl)cc4)N(C)C)CC3)C2)cc1OC (stereo not drawn) [Example 260],9
5,COc1cc(C)c(S(=O)(=O)N2CCC(OCC(=O)NC3CCC(C(c4cccc(F)c4)N(C)C)CC3)C2)c(C)c1 (stereo not drawn) [Example 251],87
6,CN(C)C(c1ccc(F)cc1)C1CCC(CCNC(=O)COC2CCCCC2N(C)S(=O)(=O)c2ccc(Cl)c(Cl)c2)CC1 (stereo not drawn) [Example 244],−5
7,CN(C)C(c1ccc(Cl)cc1)C1CCC(CNC(=O)COCCN(C)S(=O)(=O)c2c(Cl)cccc2Cl)CC1 (stereo not drawn) [Example 207],52
8,"CN(C)C(c1ccccc1)C1CCC(NC(=O)COCC2CCCN2S(=O)(=O)c2c(Cl)cc(Cl)cc2Cl)CC1 (stereo not drawn) [Example 613, N-[4-(Dimethylaminophenylmethyl)-cyclohexyl]-2-[1-(2,4,6-trichlorobenzenesulfonyl)-pyrrolidin-2-ylmethoxy]-acetamide]",34
9,COc1ccc(S(=O)(=O)N2CCCCC2CCOCC(=O)NCCC2CCC(C(c3cccc(F)c3)N(C)C)CC2)cc1 (stereo not drawn) [Example 213],49
10,COc1cc(C)c(S(=O)(=O)N(C)CCOCC(=O)NCC2CCC(C(c3cccc(F)c3)N(C)C)CC2)c(C)c1 (stereo not drawn) [Example 248],102
11,CN(C)C(c1ccc(F)cc1)C1CCC(NC(=O)COC2CCCCC2N(C)S(=O)(=O)c2ccc(Cl)c(Cl)c2)CC1 (stereo not drawn) [Example 256],1
12,CN(C)C(c1cccc(F)c1)C1CCC(CCNC(=O)COC2CCN(S(=O)(=O)c3ccc(Cl)cc3)C2)CC1 (stereo not drawn) [Example 247],8
13,Cc1ccc(S(=O)(=O)N(C)CCOCC(=O)NCC2CCC(C(c3ccc(Cl)cc3)N(C)C)CC2)cc1 (stereo not drawn) [Example 273],37
14,CN(C)C(c1cccc(F)c1)C1CCC(CCNC(=O)COCCN(C)S(=O)(=O)c2ccc(OC(F)(F)F)cc2)CC1 (stereo not drawn) [Example 215],22
15,"Cc1ccc(S(=O)(=O)N(C)CCOCC(=O)NC2CCC(C(c3cccs3)N(C)C)CC2)cc1 (stereo not drawn) [Example 168, N-(4-((dimethylamino) (thiophen-2-yl)methyl)cyclohexyl)-2-(2-(N,4-dimethylphenylsulfamido)ethoxy)acetamide]",16
16,CN(C)C(c1cccc(F)c1)C1CCC(CNC(=O)COCC2CCCN(S(=O)(=O)c3ccccc3)C2)CC1 (stereo not drawn) [Example 220],7
17,COc1ccc(S(=O)(=O)N2CCCCC2COCC(=O)NC2CCC(C(c3cccs3)N(C)C)CC2)cc1 (stereo not drawn) [Example 243],27
18,Cc1ccc(S(=O)(=O)N2CCC(OCC(=O)NCCC3CCC(C(c4cccc(F)c4)N(C)C)CC3)C2)cc1 (stereo not drawn) [Example 216],12
19,COc1cc(C)c(S(=O)(=O)N2CCC(OCC(=O)NCCC3CCC(C(c4cccc(F)c4)N(C)C)CC3)C2)c(C)c1C (stereo not drawn) [Example 253],18

# Same assay, conditions: CHO-K1, B1R antagonism rat; test substance 10 μM; Ca2+ FLIPR, CHO K1 rB1R cells; read-out: B1R Ant. r [10 μM] % Inhibition
row,Structure (SMILES),inhibition at 10 µM [%]
1,"O=C(COCCN(C1CC1)S(=O)(=O)c1c(Cl)cc(Cl)cc1Cl)NC1CCC(C(c2ccccc2)N2CCCC2)CC1 (stereo not drawn) [Example 603, 2-{2-[cyclopropyl-(2,4,6-trichlorobenzenesulfonyl)-amino]-ethoxy}-N-[4-(phenylpyrrolidin-1-ylmethyl)-cyclohexyl]-acetamide]",85
2,"CN(C)C(c1ccccc1)C1CCC(NC(=O)COC2CCCN(S(=O)(=O)c3c(Cl)cc(Cl)cc3Cl)C2)CC1 (stereo not drawn) [Example 608, N-[4-(dimethylaminophenylmethyl)-cyclohexyl]-2-[1-(2,4,6-trichlorobenzenesulfonyl)-piperidin-3-yloxy]-acetamide]",34
